System: Respiratory syncytial virus (RSV) strain A2
Test: RSV antiviral assay (HEp-2, 96 well)
Type: cell-based
Details: human respiratory syncytial virus, HEp-2, 96 h, read-out: EC50 RSV HEP2 96, HEp-2 cells, RSV A2, MOI=4, 4 days, 96 well; Table 3

| Compound | EC50 |
| --- | --- |
| CC(C)C(=O)O[C@H]1[C@@H](OC(=O)C(C)C)[C@](C#N)(c2ccc3c(N)ncnn23)O[C@@H]1COP(=O)(N[C@@H](C)C(=O)OCC1CCC1)Oc1ccc(C(C)(C)C)cc1 (stereo partly drawn) [Example 60, [(2R,3R,4R,5R)-5-(4-aminopyrrolo[2,1-f][1,2,4]triazin-7-yl)-2-[[(4-tert-butylphenoxy)-[[(1S)-2-(cyclobutylmethoxy)-1-methyl-2-oxo-ethyl]amino]phosphoryl]oxymethyl]-5-cyano-4-(2-methylpropanoyloxy)tetrahydrofuran-3-yl] 2-methylpropanoate] | 64 nM |
| CCC(=O)O[C@H]1[C@@H](OC(=O)CC)[C@](C#N)(c2ccc3c(N)ncnn23)O[C@@H]1COP(=O)(N[C@@H](C)C(=O)OC1CCC1)Oc1ccccc1 (stereo partly drawn) [Example 107, (2R,3R,4R,5R)-2-(4-aminopyrrolo[2,1-f][1,2,4]triazin-7-yl)-2-cyano-5-((((((S)-1-cyclobutoxy-1-oxopropan-2-yl)amino)(phenoxy)phosphoryl)oxy)methyl)tetrahydrofuran-3,4-diyl Dipropionate] | 20.1 nM |

Same assay, conditions: read-out: EC50 RSV HEP2 96; HEp-2 cells, RSV A2, MOI=4, 4 days, 96 well; Table 3

| Compound | EC50 |
| --- | --- |
| CC(=O)O[C@H]1[C@@H](OC(C)=O)[C@](C#N)(c2ccc3c(N)ncnn23)O[C@@H]1COP(=O)(N[C@@H](C)C(=O)OC1CCC1)Oc1ccc(C2CC2)cc1 (single isomer, unassigned) [Example 53b] | 21.2 nM |

System: SARS-CoV-2
Test: SARS-CoV-2 antiviral assay (A549-hACE2, Nano luciferase)
Type: cell-based
Details: Severe acute respiratory syndrome coronavirus 2, 48 h, A549-hACE2 cells, SARS-CoV2-Nano, MOI 0.025, 48 h; Table 4; read-out: EC50 SARS CoV2

| Compound | EC50 |
| --- | --- |
| CC(C)C(=O)O[C@H]1[C@@H](OC(=O)C(C)C)[C@](C#N)(c2ccc3c(N)ncnn23)O[C@@H]1COP(=O)(N[C@@H](C)C(=O)OCC1CCC1)Oc1ccc(C(C)(C)C)cc1 (stereo partly drawn) [Example 60, [(2R,3R,4R,5R)-5-(4-aminopyrrolo[2,1-f][1,2,4]triazin-7-yl)-2-[[(4-tert-butylphenoxy)-[[(1S)-2-(cyclobutylmethoxy)-1-methyl-2-oxo-ethyl]amino]phosphoryl]oxymethyl]-5-cyano-4-(2-methylpropanoyloxy)tetrahydrofuran-3-yl] 2-methylpropanoate] | 180 nM |
| CCC(=O)O[C@H]1[C@@H](OC(=O)CC)[C@](C#N)(c2ccc3c(N)ncnn23)O[C@@H]1COP(=O)(N[C@@H](C)C(=O)OC1CCC1)Oc1ccccc1 (stereo partly drawn) [Example 107, (2R,3R,4R,5R)-2-(4-aminopyrrolo[2,1-f][1,2,4]triazin-7-yl)-2-cyano-5-((((((S)-1-cyclobutoxy-1-oxopropan-2-yl)amino)(phenoxy)phosphoryl)oxy)methyl)tetrahydrofuran-3,4-diyl Dipropionate] | 180 nM |
| CC(=O)O[C@H]1[C@@H](OC(C)=O)[C@](C#N)(c2ccc3c(N)ncnn23)O[C@@H]1COP(=O)(N[C@@H](C)C(=O)OC1CCC1)Oc1ccc(C2CC2)cc1 (single isomer, unassigned) [Example 53b] | 103 nM |

System: Respiratory syncytial virus (RSV) strain A2
Test: Hep-2 RSV2 384-well assay (EC50-HEP2-384)
Type: cell-based
Details: HEp-2 cells, RSV A2, MOI=4, 4 days, Table 3

| Compound | EC50 |
| --- | --- |
| CCCOC(=O)[C@H](C)NP(=O)(OC[C@H]1O[C@@](C#N)(c2ccc3c(N)ncnn23)[C@H](O)[C@@H]1O)Oc1ccc(C(C)(C)C)cc1 (single isomer, unassigned) [Example 47b] | 68.3 nM |
| CC(=O)O[C@H]1[C@@H](OC(C)=O)[C@](C#N)(c2ccc3c(N)ncnn23)O[C@@H]1COP(=O)(N[C@@H](C)C(=O)OC1CC2(CCCC2)C1)Oc1ccc(C(C)(C)C)cc1 (stereo partly drawn) [Example 98b, (2R,3R,4R,5R)-2-(4-aminopyrrolo[2,1-f][1,2,4]triazin-7-yl)-5-((((4-(tert-butyl)phenoxy)(((S)-1-oxo-1-(spiro[3.4]octan-2-yloxy)propan-2-yl)amino)phosphoryl)oxy)methyl)-2-cyanotetrahydrofuran-3,4-diyl Diacetate] | 52.2 nM |
| C[C@H](NP(=O)(OC[C@H]1O[C@@](C#N)(c2ccc3c(N)ncnn23)[C@H](O)[C@@H]1O)Oc1ccc(C(C)(C)C)cc1)C(=O)OCC1CC1 (stereo partly drawn) [Example 101b, Cyclopropyl methyl ((((2R,3S,4R,5R)-5-(4-aminopyrrolo[2,1-f][1,2,4]triazin-7-yl)-5-cyano-3,4-dihydroxytetrahydrofuran-2-yl)methoxy)(4-(tert-butyl)phenoxy)phosphoryl)-L-alaninate] | 79.2 nM |
| CCC(=O)O[C@H]1[C@@H](OC(=O)CC)[C@](C#N)(c2ccc3c(N)ncnn23)O[C@@H]1COP(=O)(N[C@@H](C)C(=O)OC1CC2(CCCC2)C1)Oc1ccc(C(C)(C)C)cc1 (stereo partly drawn) [Example 99b, (2R,3R,4R,5R)-2-(4-aminopyrrolo[2,1-f][1,2,4]triazin-7-yl)-5-((((4-(tert-butyl)phenoxy)(((S)-1-oxo-1-(spiro[3.4]octan-2-yloxy)propan-2-yl)amino)phosphoryl)oxy)methyl)-2-cyanotetrahydrofuran-3,4-diyl Dipropionate] | 66.9 nM |

Same assay, conditions: human respiratory syncytial virus, HEp-2, 96 h, HEp-2 cells, RSV A2, MOI=4, 4 days, Table 3

| Compound | EC50 |
| --- | --- |
| CCC(CC)COC(=O)[C@H](C)NP(=O)(OC[C@H]1O[C@@](C#N)(c2ccc3c(N)ncnn23)[C@H](OC(C)=O)[C@@H]1OC(C)=O)Oc1ccc(OC2CCCCC2)cc1 (stereo partly drawn) [Example 152, (2R,3R,4R,5R)-2-(4-aminopyrrolo[2,1-f][1,2,4]triazin-7-yl)-2-cyano-5-((((4-(cyclohexyloxy)phenoxy)(((S)-1-(2-ethylbutoxy)-1-oxopropan-2-yl)amino)phosphoryl)oxy)methyl)tetrahydrofuran-3,4-diyl Diacetate] | 211 nM |
| CCOC(=O)[C@H](C)NP(=O)(OC[C@H]1O[C@@](C#N)(c2ccc3c(N)ncnn23)[C@H](O)[C@@H]1O)Oc1ccc(C23CC(C2)C3)cc1 (stereo partly drawn) [Example 41, Ethyl ((((2R,3S,4R,5R)-5-(4-aminopyrrolo[2,1-f][1,2,4]triazin-7-yl)-5-cyano-3,4-dihydroxytetrahydrofuran-2-yl)methoxy)(4-(bicyclo[1.1.1]pentan-1-yl)phenoxy)phosphoryl)-L-alaninate] | 142 nM |
| CCC(CC)COC(=O)[C@H](C)N[P@](=O)(OC[C@H]1O[C@@](C#N)(c2ccc3c(N)ncnn23)[C@H](OC(=O)C(C)C)[C@@H]1OC(=O)C(C)C)Oc1cccc2c1CCCC2 [Example 144, (2R,3R,4R,5R)-2-(4-aminopyrrolo[2,1-f][1,2,4]triazin-7-yl)-2-cyano-5-((((S)—(((S)-1-(2-ethylbutoxy)-1-oxopropan-2-yl)amino)((5,6,7,8-tetrahydronaphthalen-1-yl)oxy)phosphoryl)oxy)methyl)tetrahydrofuran-3,4-diyl bis(2-methylpropanoate)] | 780 nM |
| COCCOC(=O)[C@H](C)NP(=O)(OC[C@H]1O[C@@](C#N)(c2ccc3c(N)ncnn23)[C@H](O)[C@@H]1O)Oc1ccc(C(C)(C)C)cc1 (stereo partly drawn) [Example 141, 2-methoxyethyl ((((2R,3S,4R,5R)-5-(4-aminopyrrolo[2,1-f][1,2,4]triazin-7-yl)-5-cyano-3,4-dihydroxytetrahydrofuran-2-yl)methoxy)(4-(tert-butyl)phenoxy)phosphoryl)-L-alaninate] | 305 nM |
| C[C@H](NP(=O)(OC[C@H]1O[C@@](C#N)(c2ccc3c(N)ncnn23)[C@H](O)[C@@H]1O)Oc1ccc(C(C)(C)C)cc1)C(=O)O[C@H]1CCOC1 (stereo partly drawn) [Example 34, (S)-tetrahydrofuran-3-yl ((((2R,3S,4R,5R)-5-(4-aminopyrrolo[2,1-f][1,2,4]triazin-7-yl)-5-cyano-3,4-dihydroxytetrahydrofuran-2-yl)methoxy)(4-(tert-butyl)phenoxy)phosphoryl)-L-alaninate] | 1500 nM |
| CC(C)C(=O)O[C@H]1[C@@H](OC(=O)C(C)C)[C@](C#N)(c2ccc3c(N)ncnn23)O[C@@H]1COP(=O)(N[C@@H](C)C(=O)O[C@H]1CCOC1)Oc1ccc(C(C)(C)C)cc1 (stereo partly drawn) [Example 36, (2R,3R,4R,5R)-2-(4-aminopyrrolo[2,1-f][1,2,4]triazin-7-yl)-5-((((4-(tert-butyl)phenoxy)(((S)-1-oxo-1-(((S)-tetrahydrofuran-3-yl)oxy)propan-2-yl)amino)phosphoryl)oxy)methyl)-2-cyanotetrahydrofuran-3,4-diyl bis(2-methylpropanoate)] | 102 nM |
| C[C@H](NP(=O)(OC[C@H]1O[C@@](C#N)(c2ccc3c(N)ncnn23)[C@H](O)[C@@H]1O)Oc1ccc(C(C)(C)C)cc1)C(=O)OC1CC2(CCCC2)C1 (stereo partly drawn) [Example 97a, Spiro[3.4]octan-2-yl ((((2R,3S,4R,5R)-5-(4-aminopyrrolo[2,1-f][1,2,4]triazin-7-yl)-5-cyano-3,4-dihydroxytetrahydrofuran-2-yl)methoxy)(4-(tert-butyl)phenoxy)phosphoryl)-L-alaninate] | 103 nM |
| CCOC(=O)[C@H](C)NP(=O)(OC[C@H]1O[C@@](C#N)(c2ccc3c(N)ncnn23)[C@H](OC(C)=O)[C@@H]1OC(C)=O)Oc1ccc(C(C)(C)C)cc1 (stereo partly drawn) [Example 157, (2R,3R,4R,5R)-2-(4-aminopyrrolo[2,1-f][1,2,4]triazin-7-yl)-5-((((4-(tert-butyl)phenoxy)(((S)-1-ethoxy-1-oxopropan-2-yl)amino)phosphoryl)oxy)methyl)-2-cyanotetrahydrofuran-3,4-diyl Diacetate] | 79.5 nM |
